Assay results published in PubChem BioAssay (NCI).
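48-hour exposure; five concentrations; linearly interpolated endpoints. TGI: total growth inhibition.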 *1 amine or outer side, *2 acyl side, *3 side chain or, on linkers, in order; H or OH if unused. Where a SMILES comes first, the peptide text is derived from it. Bridges are numbered along the chain shown (N, C = ends). [ ]: non-standard residue; d: D form. The star is where a group is joined. X34 = O=C(C(CCCCNO[*:3])N[*:1])[*:2]; Fmoc = O=C(OCC1c2ccccc2-c2ccccc21)*

Key:
Experiment in all cases: NCI-60 cell line screen, 48 h
[1] = tested on: BT-549 breast
[2] = tested on: HCT-116 colon
[3] = tested on: SK-MEL-2 melanoma
[4] = tested on: SK-OV-3 ovarian
[5] = tested on: MCF7 breast

| SMILES | TGI [1] | TGI [2] | TGI [3] | TGI [4] | TGI [5] |
| --- | --- | --- | --- | --- | --- |
| O=c1c(-c2ccccc2F)coc2cc(F)ccc12 | > 100 µM | > 100 µM | > 100 µM | > 100 µM |  |
| CC(=O)c1ccc2c(c1)CC1(C2)Cc2ccc3c(c2C1=O)CCC3 (stereo unspecified) | > 100 µM | > 100 µM | 35.5 µM | > 100 µM | 72 µM |
| C#Cc1cc(Br)c(OC(=O)C(C)(C)C)c(-c2cc(C#C)cc(Br)c2OC(=O)C(C)(C)C)c1 | > 100 µM | > 100 µM | > 100 µM | > 100 µM | > 100 µM |
| COc1nc2c(c(=O)n1C)N=C(c1ccccc1)[C@H](C(CC(=O)c1ccccc1)c1ccccc1)C(c1ccccc1)N2 (stereo partly specified) | > 100 µM | > 100 µM | > 100 µM | > 100 µM | > 100 µM |
| Oc1cc(N2CCCC2)ccc1/C=N/N1C(=S)N(c2ccccc2)C(=Nc2ccccc2)C1=Nc1ccccc1 | > 100 µM | > 100 µM | > 100 µM | > 100 µM | > 100 µM |
| CCOC(OCC)N1C(=O)C2(C(OCC)OCC)CC3C(OC(=O)N3N)c3cccc1c32 (stereo unspecified) | > 100 µM | > 100 µM |  | > 100 µM | > 100 µM |
| CC(=O)OCC(C)(COC(C)=O)N1C(=O)C2C3c4ccccc4C(c4ccccc43)C2C1=O (stereo unspecified) | > 100 µM | > 100 µM |  | > 100 µM | > 100 µM |
| Nc1ccc(C23CC4CC(C2)CC(c2ccc(N)cc2)(C4)C3)cc1 | > 100 µM | > 100 µM | > 100 µM |  | > 100 µM |
| N=CN=CC(=S)O[C@@H]1C(=O)N2CCC[C@@]23CCCC[C@@H]13 |  | > 12.5 µM | > 12.5 µM | > 12.5 µM | > 12.5 µM |
| C=C1C(=O)OC2C3C(=C)[C@@H](OC(C)=O)CC3C(C)=CC(OC(=O)C(C)(OC(C)=O)C(C)OC(C)=O)[C@@H]12 (stereo partly specified) | 33 µM | 23.8 µM | 27.4 µM | > 100 µM | 24.1 µM |
| COc1cccc(Nc2nc(N)nc(N)c2N)c1 | > 100 µM | 53.8 µM | > 100 µM | > 100 µM | 95 µM |
| CSc1nc2c(c(N3CCOCC3)n1)C(O)n1c(nc3ccccc31)S2 (stereo unspecified) | > 100 µM | > 100 µM | > 100 µM | > 100 µM | > 100 µM |
| Cc1ccc(OCC2OC(n3cnc4c(Cl)nc(Cl)nc43)CC2Oc2ccc(C)cc2)cc1 (stereo unspecified) | 4.3 µM | 3.65 µM | 5.26 µM | 35.9 µM | 4.01 µM |
| CC1=NN(c2nc(N)nc(C/C(N)=N/O)n2)C(C)(C)C1 | > 100 µM | > 100 µM |  | > 100 µM | > 100 µM |
| O=C(N/N=C/c1ccc([N+](=O)[O-])cc1)Nc1ccc(Br)cc1 | > 100 µM | > 100 µM | > 100 µM | > 100 µM | > 100 µM |
| Cc1ccnc2[nH]c(-c3ccc(F)cc3)cc(=O)c12 | > 100 µM | > 100 µM | > 100 µM | > 100 µM | > 100 µM |
| Oc1c(Br)cc(/C=C/c2cccc(/C=C/c3cc(Br)c(O)c(Br)c3)n2)cc1Br | > 100 µM | 21 µM | 20.1 µM | 62.9 µM | 42.5 µM |

| SMILES | TGI [1] | TGI [2] | TGI [3] | TGI [4] | TGI [5] |
| --- | --- | --- | --- | --- | --- |
| CCOC(=O)c1c(C)n(C)c2c1cc(O)c1[nH]c3c(c12)CCCC3 | > 100 µM | 50.3 µM | 37 µM | > 100 µM | 19.4 µM |
| CC(C)Oc1cccc(N2C(=NCCc3c[nH]c4ccccc34)Nc3ccncc3S2(=O)=O)c1 | > 100 µM | > 100 µM | > 100 µM | > 100 µM | > 100 µM |
| CCS(=O)(=O)CCn1c(=O)c2c(ncn2C)n(C)c1=O | > 100 µM | > 100 µM | > 100 µM |  | > 100 µM |
| CC(=O)OC[C@@]12Cc3ccc(C)c(O)c3[C@]1(C)[C@@H](OC(C)=O)[C@]1(O)[C@H]([C@@H](OC(=O)c3ccccc3)[C@@H](C)[C@H]1OC(C)=O)[C@H]2OC(C)=O | > 50 µM | > 50 µM | > 50 µM | > 50 µM | > 50 µM |
| CN(C)c1ccc(C2CC(c3ccc4ccccc4c3O)=NN2c2ccc([N+](=O)[O-])cc2[N+](=O)[O-])cc1 (stereo unspecified) | > 100 µM | > 100 µM | > 100 µM | > 100 µM | > 100 µM |
| COc1cc(/C=C\c2nnc(/C=C\c3ccc(O)c(OC)c3)s2)ccc1O | 11.1 µM | 14 µM | 26 µM | 30.6 µM | 11.3 µM |
| CSc1nc(C)c(CCOC(C)=O)c(Cl)n1 | > 100 µM | > 100 µM |  | > 100 µM | > 100 µM |
| CC(=O)n1cc(OP(=O)(Oc2ccccc2)Oc2ccccc2)c2ccccc21 | > 100 µM | 92.2 µM | 77 µM |  | 31.5 µM |
| O/N=C1/CC2(N3CCOCC3)C3CC/C(=N\O)C2CC1(Cc1ccccc1)C3 (stereo unspecified) |  | > 100 µM | > 100 µM | > 100 µM | > 100 µM |
| O=C1OC(C2(O)OC(=O)c3ccccc32)c2ccccc21 (stereo unspecified) | > 100 µM | > 100 µM | > 100 µM | > 100 µM | > 100 µM |
| COc1ccc(N=NC(=Nc2ccc(Cl)cc2)c2ccc(N(CCC#N)CCC#N)cc2)cc1 | 87.3 µM | > 100 µM | 14.5 µM | > 100 µM | > 100 µM |
| CCOC(=O)c1cc(Br)c(-c2cc(C)no2)[nH]1 | > 100 µM | > 100 µM | > 100 µM | > 100 µM |  |
| CCN(CC)C1C(=O)NC1C#Cc1ccccc1 (stereo unspecified) | > 100 µM | > 100 µM | > 100 µM | > 100 µM | > 100 µM |
| CC(NC(=O)c1ccc(NP(=O)(OCc2ccc([N+](=O)[O-])o2)N(C)CCCCCl)cc1)c1ccc(OCC2CCCCC2)c(C(N)=O)c1 (stereo unspecified) |  | 31.6 µM | 49.3 µM | 78.3 µM | 18.3 µM |
| CN(C(=O)C1=CCC2(CC1)OCCO2)c1ccccc1I |  | > 100 µM | > 100 µM | > 100 µM | > 100 µM |
| NC(=O)CNC(=O)C1CCCN1C(=O)C1CCCCNOC(=O)CCC(NC(=O)OCC2c3ccccc3-c3ccccc32)C(=O)NC(Cc2c[nH]c3ccccc23)C(=O)N1 (stereo unspecified) (Fmoc-EW[X34]PG-NH2; ester 1-3; configuration not given here) | > 100 µM | > 100 µM | > 100 µM | > 100 µM | > 100 µM |
| O=C1/C(=C/c2ccc(Oc3ccccc3)cc2)N=C(c2ccccc2)N1c1ccc(S(=O)(=O)Nc2nccs2)cc1 |  | 35.4 µM | 16.1 µM | > 100 µM | 38 µM |
